Reference: US10159670B2, “Methods of diagnosing and treating motor neuron diseases and other cellular stress-related diseases” (priority 2012, dated 2018)

What was measured:
Format in all cases: cell-based
[1] = system: mouse embryonic fibroblasts (MEFs); test: pre-miRNA and miRNA levels in mouse embryonic fibroblasts under stress
Method: (§1) (FIG. 7A) miRNA expression level analysis in the motor neuron cell line NSC-34, treated with 6.25 nM Thapsigargin for 24 hrs, relative to cells treated with carrier alone (DMSO). Shown are average and s.d. of qPCR analyses of 3 independent experiments. Pre-miRNAs (light grey, normalized to Gapdh) and miRNAs (dark grey, normalized to Snord68). (FIG. 7B) mRNA levels encoding for proteins involved in the canonical stress response, normalized to the expression of beta-actin. (FIG. 7C) miRNA expression level analysis in mouse embryonic motor neurons, treated with 5 nM Thapsigargin for 72 hrs, relative to cells treated with carrier alone (DMSO). Shown are average and s.d. of qPCR analyses of three independent experiments. Pre-miRNAs (light grey, normalized to Gapdh and beta actin) and miRNAs (dark grey, normalized to Snord70). (FIG. 7D) mRNA markers of the canonical stress response, normalized to the expression of beta-actin. miRNA expression level analysis in NSC-34 cells, treated with Paraquat (PQ) (1 mM, 12 hrs, FIG. 7E) and sodium arsenite (0.5 mM, 60 min, FIG. 7F). pre-miRNA normalized to beta-actin mRNA (FIGS. 7E-F) and miRNAs to 5S (FIG. 7E) or to U6 and 5S (FIG. 7F). (FIGS. 7G-I) miRNA expression level analysis in mouse embryonic Wild-type fibroblasts (light grey) or phospho-mutant eIF2a S51A cells (black) treated with Thapsigargin (5 nM, 72 hrs) relative to carrier alone. Pre-miRNA (FIG. 7G) and mature miRNA (FIG. 7H) levels normalized to Gapdh and Snord68, respectively. (FIG. 7I) ATF4, which is induced by phosphorylation of eIF2a, was not induced in phospho-mutant eIF2a S51A cells. Significance of p-values from ANOVA tests is indicated by *p<0.05; **p<0.01. (FIGS. 7J-K) Western-Blot analysis of lysates from untreated NSC-34 cells (control) or cells treated with sodium arsenite (0.5 mM, 60 min). Phospho-specific immunodetection of eIF2a S51 phosphorylation (peIF2a) and total eIF2a levels (FIG. 7J), Dicer and Ago2 levels (FIG. 7K). (FIG. 7L) miRNA expression level analysis in mouse embryonic fibroblasts treated with Puromycin (1 μg/ml, 24 hrs), relative to cells treated with carrier alone (water). Pre-miRNAs (light grey, normalized to Gapdh) and miRNAs (dark grey, normalized to Snord68).
(FIG. 9A) The ratio of pre-miRNA to mature miRNA levels in NSC-34 cells, transfected with plasmids as indicated and in cells treated for 72 hrs with carrier alone (water, black) or with cycloheximide (CHX, 0.02 μg/ml, gray). Data normalized to control plasmid transfection. Pre-miRNAs further normalized to Gapdh (for FUS R495X, TDP-43 A315T) or to beta-actin (SOD1 G93A) and miRNA levels normalized to Snord68. Average of three independent experiments except for pre-miRNAs in the study of FUS R495X (n=2). Targeted quantitative mass spectrometry analysis of changes in the binding of Ago2 or Dicer to a set of proteins interactors under stress (FIGS. 9B-E). Immunoprecipitated Ago2-Flag (FIG. 9B) or Dicer-Flag (FIG. 9C) from HEK 293 cells, cultured under basal conditions or treated with sodium arsenite (0.5 mM, 60 min) was subjected to targeted mass-spectrometry analysis. Data is averaged from two or three different peptide standards per protein and normalized to the levels of co-immunoprecipiated peptides from untreated cells. Statistically significant result in a student t-test, between arsenite and control treatment is denoted (*p<0.05). Targeted mass spectrometry of (FIG. 9D) Dicer cofactors or (FIG. 9E) SG components, immunoprecipitated with AGO-Flag in FUS R495X-expressing HEK 293 that were further treated for 72 hrs with carrier alone or Cycloheximide (0.02 μg/ml). (FIG. 9F) The ratio of pre-miRNA to mature miRNA levels in mouse embryonic fibroblasts, pretreated for 5 hrs with HSP90 inhibitors (17-AAG, 1 μM or Geldanamycin, 1 μM) and then incubated for 36 more hours with Thapsigargin (5 nM) in combinations with the respective HSP90 inhibitor. […]

NSC-34 cells = test: Stress-induced change of pre-miRNA processing in NSC-34 cells (qPCR)
Method: as §1
RNA was extracted using Tri reagent (Molecular Research Center Inc.) or Qiazol with consecutive use of the miRNeasy Mini Kit (Qiagen). Pre-miRNA and miRNA reverse transcription was performed using miScript Kits No. I & II (Qiagen). Quantitative analysis of miRNA and pre-miRNA expression performed in more than 3 independent biological repeats and additionally in technical duplicates with StepOnePlus quantitative Real-Time PCR System and 2-sided ANOVA-test performed with DataAssist Software (Life technologies Inc.). Next-generation sequencing of mouse precursor miRNAs and mature miRNAs was performed on two independent experimental repeats, as described in Newman et al. [Newman et al. (2011) RNA 17(10): 1795-1803]. miRNAs were normalized to spiked-in controls and pre-miRNAs were normalized to Snord72 and Snord95.
Stress and cytoplasmic stress granules (SGs) emerge as major pathogenic mechanisms of ALS [Kim et al. (2014) Nat Genet 46(2): 152-160]. Stress pathways are thought to control miRNA activity [Etude and Hornstein, EMBO J. (2014) July 1; 33(13):1428-37], but the idea that cellular stress might broadly regulate miRNA biogenesis was not yet tested. This hypothesis was tested herein by measurement of the relative expression levels of mature miRNAs and their precursors, pre-miRNAs, which provides a proxy for the efficacy of Dicer complex activity. […] Two other chemicals were tested that drive oxidative stress, namely Paraquat (PQ, 12 hrs, 1 mM) and sodium arsenite (1 hr, 0.5 mM). […] Therefore, several different cellular stress pathways negatively regulate miRNA biogenesis.

[2] = system: mouse embryonic motor neurons; test: Stress-induced change of miRNA biogenesis in primary mouse motor neurons; details: 5 nM, 72 hrs
Method: (FIG. 7A) miRNA expression level analysis in the motor neuron cell line NSC-34, treated with 6.25 nM Thapsigargin for 24 hrs, relative to cells treated with carrier alone (DMSO). Shown are average and s.d. of qPCR analyses of 3 independent experiments. Pre-miRNAs (light grey, normalized to Gapdh) and miRNAs (dark grey, normalized to Snord68). (FIG. 7B) mRNA levels encoding for proteins involved in the canonical stress response, normalized to the expression of beta-actin. (FIG. 7C) miRNA expression level analysis in mouse embryonic motor neurons, treated with 5 nM Thapsigargin for 72 hrs, relative to cells treated with carrier alone (DMSO). Shown are average and s.d. of qPCR analyses of three independent experiments. Pre-miRNAs (light grey, normalized to Gapdh and beta actin) and miRNAs (dark grey, normalized to Snord70). (FIG. 7D) mRNA markers of the canonical stress response, normalized to the expression of beta-actin. miRNA expression level analysis in NSC-34 cells, treated with Paraquat (PQ) (1 mM, 12 hrs, FIG. 7E) and sodium arsenite (0.5 mM, 60 min, FIG. 7F). pre-miRNA normalized to beta-actin mRNA (FIGS. 7E-F) and miRNAs to 5S (FIG. 7E) or to U6 and 5S (FIG. 7F). (FIGS. 7G-I) miRNA expression level analysis in mouse embryonic Wild-type fibroblasts (light grey) or phospho-mutant eIF2a S51A cells (black) treated with Thapsigargin (5 nM, 72 hrs) relative to carrier alone. […]

COc1ccc(C[C@H](N)C(=O)N[C@H]2[C@@H](O)[C@H](n3cnc4c(N(C)C)ncnc43)O[C@@H]2CO)cc1 [Puromycin]
efficacy of pre-miRNA biogenesis ([1]; 1 μg/ml, 24 hrs): decreased the efficacy of pre-miRNA biogenesis

C/C=C(/C)C(=O)O[C@H]1C(C)=C2[C@H]([C@@H]1OC(=O)CCCCCCC)[C@@](C)(OC(C)=O)C[C@H](OC(=O)CCC)[C@@]1(O)[C@H]2OC(=O)[C@@]1(C)O [Thapsigargin]
RNA markers of ER-stress: ASNS, ATF4, CHOP and GRP78 (NSC-34 cells; 6.25 nM, 24 hrs): up-regulation of RNA markers of ER-stress | mature miRNAs levels (NSC-34 cells; 6.25 nM, 24 hrs): down-regulate mature miRNAs levels | miRNA precursors levels (NSC-34 cells; 6.25 nM, 24 hrs): up-regulate miRNA precursors levels | markers of ER-stress [2]: up-regulated markers of ER-stress | miRNA biogenesis [2]: affected miRNA biogenesis | ATF4 mRNA levels ([1]; eIF2a S51A MEFs, 5 nM, 72 hrs): failed to upregulate ATF4 mRNA levels | Dicer inhibition (pre-miRNA and mature miRNA levels) ([1]; eIF2a S51A MEFs, 5 nM, 72 hrs): partial recovery from Thapsigargin-induced Dicer inhibition | mature miRNA species ([1]; wild-type MEFs, 5 nM, 72 hrs): relative depletion of the corresponding mature miRNA species | pre-miRNAs ([1]; wild-type MEFs, 5 nM, 72 hrs): accumulation of pre-miRNAs

C[n+]1ccc(-c2cc[n+](C)cc2)cc1 [Paraquat]
mature miRNAs (NSC-34 cells; PQ, 12 hrs, 1 mM): down-regulation of mature miRNAs | pre-miRNA levels (NSC-34 cells; PQ, 12 hrs, 1 mM): up-regulation of pre-miRNA levels

C=CCNC1=C2C[C@@H](C)C[C@H](OC)[C@H](O)[C@@H](C)/C=C(\C)[C@H](OC(N)=O)[C@@H](OC)/C=C\C=C(/C)C(=O)NC(=CC1=O)C2=O [17-AAG]
Thapsigargin-induced inhibition of miRNA biogenesis (ratio of pre-miRNA to mature miRNA) ([1]; HSP90 inhibitor 1 μM, 5 hrs pretreatment, then 36 hrs with Thapsigargin 5 nM): aggravated Thapsigargin-induced inhibition of miRNA biogenesis
